Source: patent publication US10022447B2, “Solid pharmaceutical compositions containing pregabalin” (Warner-Lambert Company LLC, priority 2005, dated 2018)

Experiment: Clinical studies of regional GI absorption of pregabalin
Assay type: in vivo
Details: humans
Description: Once daily dosing of pregabalin, however, presents numerous challenges. Conventional extended release (ER) compositions are problematic for QD dosing because pregabalin is not absorbed uniformly in the gastrointestinal (GI) tract. […] Furthermore, pregabalin is a γ-amino acid which under normal storage conditions may undergo intramolecular cyclization to form a lactam, 4-isobutyl-pyrrolidin-2-one. See, e.g., WO 99/10186 and WO 99/59573, both to A. Aomatsu. Although it is known that the non-active components of the pharmaceutical composition may affect lactam formation, it is difficult to predict which excipients may lead to undesirable lactam formation.

CC(C)C[C@H](CN)CC(=O)O [pregabalin, (S)-(+)-3-aminomethyl-5-methyl-hexanoic acid]
mean absorption window: about six hours or less | regional absorption in the GI tract: poorly absorbed beyond the hepatic flexure
